Usually IC50 stands for the concentration that inhibits the measured activity by half.

Several values for one entry are separate records, joined by “and”; a condition that tells them apart may be missing. Equal entries are not always repeated.

T1 sequence (P09483 31-630): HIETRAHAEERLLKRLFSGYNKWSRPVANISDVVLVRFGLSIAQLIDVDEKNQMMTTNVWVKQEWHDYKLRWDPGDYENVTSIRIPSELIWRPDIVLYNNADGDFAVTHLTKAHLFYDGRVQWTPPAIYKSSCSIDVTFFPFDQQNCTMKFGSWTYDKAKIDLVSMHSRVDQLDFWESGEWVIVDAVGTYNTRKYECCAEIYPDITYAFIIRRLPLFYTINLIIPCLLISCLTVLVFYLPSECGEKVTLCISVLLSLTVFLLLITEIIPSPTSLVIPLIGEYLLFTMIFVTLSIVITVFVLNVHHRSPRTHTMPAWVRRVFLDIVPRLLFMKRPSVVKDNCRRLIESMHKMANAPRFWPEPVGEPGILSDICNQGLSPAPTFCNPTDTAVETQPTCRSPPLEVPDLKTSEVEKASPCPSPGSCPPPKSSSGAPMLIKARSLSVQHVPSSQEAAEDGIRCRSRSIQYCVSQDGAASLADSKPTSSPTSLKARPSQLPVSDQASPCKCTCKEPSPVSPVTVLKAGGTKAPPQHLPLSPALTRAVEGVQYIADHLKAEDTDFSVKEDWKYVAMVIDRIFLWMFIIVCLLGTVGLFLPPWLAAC
T1 sequence (P12390 25-500): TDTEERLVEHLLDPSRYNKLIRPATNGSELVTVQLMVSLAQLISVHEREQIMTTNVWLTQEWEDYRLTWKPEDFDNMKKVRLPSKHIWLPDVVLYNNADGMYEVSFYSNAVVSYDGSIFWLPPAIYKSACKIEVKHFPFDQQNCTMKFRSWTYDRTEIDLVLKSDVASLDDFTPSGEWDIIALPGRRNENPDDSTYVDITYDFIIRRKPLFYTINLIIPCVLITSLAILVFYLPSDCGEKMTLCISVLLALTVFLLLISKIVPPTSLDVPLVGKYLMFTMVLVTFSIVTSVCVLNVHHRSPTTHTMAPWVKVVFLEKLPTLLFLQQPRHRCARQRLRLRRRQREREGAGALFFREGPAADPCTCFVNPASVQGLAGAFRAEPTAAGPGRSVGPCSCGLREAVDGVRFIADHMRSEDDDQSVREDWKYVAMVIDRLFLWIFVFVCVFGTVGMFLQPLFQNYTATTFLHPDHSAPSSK

In the first data set the test system is humans.
Experiment: not given
The conditions noted are these: taken orally; cited from earlier work.
Take `CN1CCC[C@H]1c1cccnc1` [nicotine]: the fatal oral dose was 250 to 350 mg.

The next data set concerns the target T1, α4β2 nAChR (Rattus norvegicus, UniProt P09483+P12390).
T1 construct: made in house; host or cells: Sf9 insect cells infected with each recombinant baculovirus stock; membrane preparation
As to the kind of experiment: Inhibition of [3H](-)-nicotine binding to recombinant α4β2 nAChR.
Conditions: not given
As to the method:
Representative compounds of the invention were investigated by way of the experimental protocol described below.
Production of recombinant α4β2 nAChR:
Recombinant baculovirus stocks containing inserts for the rat α4 and β2 nAChR subunits were independently amplified as described by Wang et al. (1996) J. Neurosci. Res. 44:350-354. Production of the α4β2 nAChR was achieved by infection of Sf9 insect cells with each recombinant viral stock. Cells were harvested 48-72 h post infection by centrifugation for 10 min at 100 g, then washed in a phosphate-bufferedsaline, and homogenized in a small volume of buffer (20 mM Tris-HCl, pH 7.4, 118 mM NaCl, […], 2.5 mM CaCl2, 1.2 mM MgSO4, and 1.0 mM EDTA), followed by centrifugation for 10 min at 300 g. The final step was centrifugation of the supernatant at 37000 g. The membrane pellet was resuspended in buffer and adjusted to 20 mg of total protein per 100 mL. These nAChR preparations were used immediately for binding assays or stored as single experiment aliquots at -80° C.
Reactions were terminated by addition of 3 mL ice-cold 0.9% NaCl followed by rapid vacuum filtration through filtermat B glass fiber filters and two 3-mL washes on the filter. Filters were pre-soaked at least 60 min in 0.1% w/v polyethyleneimine to reduce non-specific binding. […] The concentration of test compounds for 50% inhibition (IC50) was determined by iterative non-linear least-squares regression using the SigmaPlot program (Jandel Scientific Software, San Rafael, Calif.). The data reported are means±standard deviations with four determinations or are individual values for two determinations.
For `N=C1NCCCN1Cc1ccc(Cl)nc1` [Compound 1, 1-(6-Chloro-3-pyridinyl)methyl-2-iminotetrahydropyrimidine], the IC50 was determined as 58 nM.

Still in this data set, the particulars now being: 1 nM [3H]nicotine, 30 min, 22° C., Sf9 cell membranes; individual values for two determinations; read-out: Inhibition of [3H](-)-nicotine binding to α4β2 nAChR IC50 (individual values for two determinations).
`N=C1NCCCN1Cc1ccc(Cl)nc1` [Compound 1, 1-(6-Chloro-3-pyridinyl)methyl-2-iminotetrahydropyrimidine]: the IC50 was 63 nM.

`C[N+](C)(C)Cc1ccc(Cl)nc1` [Compound 10, 1-(6-Chloro-3-pyridinyl)methyl-1,1,1-trimethylammonium chloride]: the concentration for half-maximal inhibition (IC50) was 16 nM and 20 nM.

With `CC[N+](CC)(CC)Cc1ccc(Cl)nc1` [Compound 11, 1-(6-Chloro-3-pyridinyl)methyl-1,1,1-triethylammonium chloride], the IC50 is 2400 nM and 3700 nM.

Still in this data set, the particulars now being: 1 nM [3H]nicotine, 30 min, 22° C., Sf9 cell membranes; means ± standard deviations, four determinations; read-out: Inhibition of [3H](-)-nicotine binding to α4β2 nAChR IC50.
For `N=C1NCCCCN1Cc1ccc(Cl)nc1` [Compound 2, 1-[(6-Chloro-3-pyridinyl)methyl]-2-iminotetrahydrodiazepine], the IC50 was 2.8 ± 1 nM. As for `N=C1SCCN1Cc1ccc(Cl)nc1` [Compound 3, 1-(^6 -Chloro-3-pyridinyl)methyl-2-iminothiazolidine], the IC50 was 2.3 ± 0.3 nM. Still for that read-out and setting: with `N=C1SCCCN1Cc1ccc(Cl)nc1` [Compound 4, 1-[(6-Chloro-3-pyridinyl)methyl]-2-iminotetrahydrothiazine] the figure was 14 ± 4 nM.

Turning to `N=C1CCCN1Cc1ccc(Cl)nc1` [Compound 5, 1-(6-Chloro-3-pyridinyl)methyl-2-iminopyrrolidine], the IC50 is 3.5 ± 0.7 nM.

For `N=C1CCCCN1Cc1ccc(Cl)nc1` [Compound 6, 1-[(6-Chloro-3-pyridinyl)methyl]-2-iminopiperidine], the IC50 turned out to be 11 ± 5 nM. Regarding `N=C1OCCN1Cc1ccc(Cl)nc1` [Compound 7, 1-[(6-Chloro-3-pyridinyl)methyl]-2-imino-1,3-oxazolidine], the IC50 was found to be 7.2 ± 2 nM. Take `N=c1[nH]ccn1Cc1ccc(Cl)nc1` [Compound 8, 1-[(6-Chloro-3-pyridinyl)methyl]-2-iminoimidazole]: the IC50 was found to be 23 ± 9 nM. Turning to `N=c1sccn1Cc1ccc(Cl)nc1` [Compound 9, 1-(6-Chloro-3-pyridinyl)methyl-2-iminothiazole], the concentration for half-maximal inhibition (IC50) was determined as 0.91 ± 0.4 nM. The same measure, in the same setting: with `Clc1ccc(CN2CCC2)cn1` [Compound 12, 1-(6-Chloro-3-pyridinyl)methylazetidine] the figure was 16 ± 14 nM; with `Clc1ccc(CN2CCCC2)cn1` [Compound 13, 1-(^6 -Chloro-3-pyridinyl)methylpyrrolidine], 8.8 ± 2.8 nM; with `Clc1ccc(CN2CCCCC2)cn1` [Compound 14, 1-(^6 -Chloro-3-pyridinyl)methylpiperidine], 14 ± 3 nM.

Another data set has as its system humans.
Experiment: not given
To be noted: administered into the human blood stream, even in relatively small amounts; cited from earlier work.
As for `CN1CCC[C@H]1c1cccnc1` [nicotine], the “central and peripheral effects of nicotine” value is “fever, increased heart rate, trembling, nausea, increased blood pressure and convulsions”.

Another data set deals with insect versus the mammalian nAChR.
Experiment: not given
The conditions noted are these: Kagabu et al. (1997); Chao et al. (1997); cited from earlier work.
Regarding `N=C1NCCN1Cc1ccc(Cl)nc1` [1-[(6-chloro-3-pyridinyl)methyl]-2-imidazolidine], the “selectivity insect versus mammalian nAChR” value is on record as “selective for the mammalian versus the insect nAChR”.

For the compound `O=[N+]([O-])NC1=NCCN1Cc1ccc(Cl)nc1` [imidacloprid], the “selectivity insect versus mammalian nAChR” value is reported as “acts selectively at the insect versus the mammalian nAChR”.

Values taken from US6303638A, “Substituted pyridines as modulators of the mammalian neuronal nicotinic acetylcholine receptor” (The Regents of the University of California, priority 1999, dated 2001).
